{"source": "patent US5491135A", "about": "(priority 1993, dated 1996)", "key": {"[1]": {"system": "HCMV strain AD 169", "assay": "Rabbit HCMV ascending dose efficacy and time course recovery (Example 7)", "details": "for Vitreo-retinal score: sum of both eyes"}, "[2]": {"system": "HCMV strain AD 169", "assay": "Rabbit model of HCMV chorioretinitis (Example 5)", "assay_type": "in vivo, pigmented rabbit", "details": "for histology: preliminary", "description": "A total of 32 pigmented rabbits were used in this study. Animals were evaluated by slit lamp and indirect ophthalmoscopy to determine normal ocular morphology and lack of preexisting pathology. Animals were handled as follows:\n[1] On day 0, all rabbits were inoculated by mid-vitreal injection of 10^5 PFU HCMV strain AD 169 in 100 μl.\n[2] Animals were maintained in individual cages and developing chorioretinal HCMV disease was monitored daily. On day 2 PI, HCMV-inoculated animals were divided into 8 groups of 4 rabbits each with matched chorioretinal disease scores. The HCMV-infected rabbits received intravenous therapy as indicated below:\nGroup #1--4 animals, intravenous injection of high dose experimental drug (50 mg/kg) daily from day 2 through 10 PI. A total of 9 IV injections.\nGroup #3--4 animals, intravenous injection of low dose experimental drug (20 mg/kg) daily from day 2 through 10 PI. A total of 9 IV injections.\nGroup #4--4 animals, intravenous injection of high dose experimental drug (50 mg/kg) daily from day 2 through 10 PI (a total of 9 IV injections) plus high dose DHPG 10 mg/kg/day in 2 divided doses from day 2 through 10 PI (a total of 18 IV injections).\nGroup #5--4 animals, intravenous injection of high dose experimental drug (50 mg/kg) daily from day 2 through 10 PI (a total of 9 IV injections) plus low dose DHPG 5 mg/kg/day in 2 divided doses from day 2 through 10 PI (a total of 18 IV injections).\nGroup #6--4 animals, intravenous injection of low dose experimental drug (20 mg/kg) daily from day 2 through 10 PI (a total of 9 IV injections) plus low dose DHPG 5 mg/kg/day in 2 divided doses from day 2 through 10 PI (a total of 18 IV injections).\nGroup #7--4 animals, intravenous injection of DHPG 10 mg/kg/day in 2 divided doses from day 2 through day 10 PI. A total of 18 IV injections.\nGroup #8--4 animals, intravenous injection of sterile saline on days 2 through 10 PI.\n[3] All animals received daily indirect ophthalmoscopic examinations to evaluate clinical HCMV disease progression (From days 2 through 10 PI). The indirect ophthalmoscopic examinations were performed independently by two readers who were masked as to the therapy that the rabbits were receiving.\n[4] All animals were sacrificed on day 12 PI. Chorioretina and iris tissues and vitreous samples will be removed and processed for HCMV recovery by cell sonicate assay on Hs68 cell monolayers. Selected ocular and lung tissue samples were processed for histochemistry to evaluate HCMV-induced ocular pathology in treated and non-treated groups.\nThe clinical, virus recovery and histological efficacy results for all drug-treated intravenous therapy groups were correlated with each other and with the placebo therapy group."}, "[3]": {"system": "clinical HCMV isolate", "assay_type": "cell-based"}, "[4]": {"system": "HCMV strain AD169", "assay_type": "cell-based"}, "[5]": {"details": "day 6, PALA 75 mg/kg/d, with or without steroid"}, "[6]": {"details": "day 6, PALA 50 or DHPG 10 mg/kg/d"}, "[7]": {"details": "day 7, PALA 75 mg/kg/d, with or without steroid"}, "[8]": {"details": "day 12, PALA 75 mg/kg/d, with or without steroid"}, "[9]": {"details": "day 12, PALA 50 or DHPG 10 mg/kg/d"}, "[10]": {"details": "PALA 50 mg/kg every other day i.v."}, "[11]": {"details": "PALA 20 daily, alone or + DHPG 5 mg/kg i.v."}, "[12]": {"details": "PALA 50 daily, DHPG 10/day, or PALA 50 + DHPG 10 or 5 mg/kg i.v."}}, "note": "“And” between values parts separate entries of the source, which are not always exact repeats. Equal entries are not always repeated. “Also recorded” adds a separate entry of the source. Where two headings read alike, the source gives them in different places.", "data": [{"smiles": "O=C(O)C[C@H](NC(=O)CP(=O)(O)O)C(=O)O", "note": "[PALA]", "values": [{"measurement": "HCMV Titer, OD", "setting": "[1]; [5]", "result": "10^3 pfu"}, {"measurement": "HCMV Titer, OS", "setting": "[1]; [5]", "result": "10^4 pfu"}, {"measurement": "HCMV recovery frequency", "setting": "[1]; [5]", "result": "3/4 and 2/4"}, {"measurement": "Optic neuritis score (ONH)", "setting": "[1]; [5]", "result": 2.0}, {"measurement": "HCMV Recovered, OD", "setting": "[1]; day 6, PALA 100 mg/kg/d", "result": "+"}, {"measurement": "HCMV Recovered, OS", "setting": "[1]; day 6, PALA 100 mg/kg/d", "result": "- and +"}, {"measurement": "HCMV Titer, OD", "setting": "[1]; day 6, PALA 100 mg/kg/d", "result": "10^2 pfu"}, {"measurement": "HCMV Titer, OS", "setting": "[1]; day 6, PALA 100 mg/kg/d", "result": "10^3 pfu"}, {"measurement": "HCMV recovery frequency", "setting": "[1]; day 6, PALA 100 mg/kg/d", "result": "3/4"}, {"measurement": "Optic neuritis score (ONH)", "setting": "[1]; day 6, PALA 100 mg/kg/d", "result": 4.0}, {"measurement": "Vitreo-retinal score", "setting": "[1]; day 6, PALA 100 mg/kg/d", "result": 4.0}, {"measurement": "Average HCMV titer", "setting": "[1]; [6]", "result": "10^2 pfu"}, {"measurement": "HCMV Recovered, OD", "setting": "[1]; [6]", "result": "+"}, {"measurement": "HCMV Recovered, OS", "setting": "[1]; [6]", "result": "+"}, {"measurement": "HCMV Titer, OD", "setting": "[1]; [6]", "result": "10^2 pfu"}, {"measurement": "HCMV recovery frequency", "setting": "[1]; [6]", "result": "4/4"}, {"measurement": "Optic neuritis score (ONH)", "setting": "[1]; [6]", "result": "1.0 and 0.5"}, {"measurement": "Vitreo-retinal score", "setting": "[1]; [6]", "result": "0.75 and 0.6"}, {"measurement": "Optic neuritis score (ONH)", "setting": "[1]; [7]", "result": 0}, {"measurement": "Vitreo-retinal score", "setting": "[1]; [7]", "result": 5.0}, {"measurement": "Optic neuritis score (ONH)", "setting": "[1]; day 7, PALA 100 mg/kg/d", "result": "2.5 and 4.0"}, {"measurement": "Vitreo-retinal score", "setting": "[1]; day 7, PALA 100 mg/kg/d", "result": "3.25 and 4.25"}, {"measurement": "Vitreo-retinal score", "setting": "[1]; day 7, PALA 50 or DHPG 10 mg/kg/d", "result": 0.4}, {"measurement": "HCMV Recovered, OD", "setting": "[1]; [8]", "result": "-"}, {"measurement": "HCMV Recovered, OS", "setting": "[1]; [8]", "result": "-"}, {"measurement": "HCMV Recovered, OD", "setting": "[1]; day 12, PALA 100 mg/kg/d", "result": "-"}, {"measurement": "HCMV Recovered, OS", "setting": "[1]; day 12, PALA 100 mg/kg/d", "result": "-"}, {"measurement": "HCMV Recovered, OD", "setting": "[1]; [9]", "result": "-"}, {"measurement": "HCMV Recovered, OS", "setting": "[1]; [9]", "result": "-"}, {"measurement": "histology", "setting": "[2]; PALA 20 mg/kg daily i.v.", "result": "diffuse disease with moderate to severe chorioretinal disease"}, {"measurement": "histology", "setting": "[2]; PALA 50 mg/kg daily i.v.", "result": "moderate areas of chorioretinal HCMV disease restricted to the inner retina"}, {"measurement": "HCMV recovery day 12 PI", "setting": "[2]; [10]", "result": "No HCMV was recovered"}, {"measurement": "clinical efficacy", "setting": "[2]; [10]", "result": "marginally effective"}, {"measurement": "lung appearance at sacrifice", "setting": "[2]; [10]", "result": "clear and non congested"}, {"measurement": "optic nerve head edema and redness", "setting": "[2]; [10]", "result": "severe on days 3-4 PI"}, {"measurement": "vitreitis severity", "setting": "[2]; [10]", "result": "moderate to severe levels within 3-4 days post inoculation"}, {"measurement": "HCMV recovery day 12 PI", "setting": "[2]; [11]", "result": "No HCMV was recovered"}, {"measurement": "clinical efficacy", "setting": "[2]; [11]", "result": "not effective"}, {"measurement": "HCMV recovery day 12 PI", "setting": "[2]; [12]", "result": "No HCMV was recovered"}, {"measurement": "clinical efficacy", "setting": "[2]; [12]", "result": "only marginally effective; also recorded: not effective"}, {"measurement": "lung appearance at sacrifice", "setting": "[2]; [12]", "result": "clear and non congested"}, {"measurement": "vitreitis severity", "setting": "[2]; [12]", "result": "moderate levels within 3-4 days post inoculation"}, {"measurement": "interstitial pneumonitis", "setting": "[2]; rabbit, in vivo", "result": "prevented interstitial pneumonitis"}, {"measurement": "reduction of HCMV titer", "setting": "[3]", "result": "effective in reducing the titer"}, {"measurement": "log reduction at 10 µg/mL", "setting": "[3]; Human betaherpesvirus 5, Hs68, read-out: viral yield reduction", "result": "2 to 3"}, {"measurement": "Cell associated HCMV titer", "setting": "[3]; day 0 PI", "result": "10^2 PFU/ml"}, {"measurement": "Cell free (supernatant) HCMV titer", "setting": "[3]; day 0 PI", "result": "10^5 PFU/ml"}, {"measurement": "Cell associated HCMV titer", "setting": "[3]; day 1 PI", "result": "10^3 PFU/ml"}, {"measurement": "Cell free (supernatant) HCMV titer", "setting": "[3]; day 1 PI", "result": "10^2 PFU/ml"}, {"measurement": "Cell associated HCMV titer", "setting": "[3]; day 2 PI", "result": "10^2 PFU/ml"}, {"measurement": "Cell free (supernatant) HCMV titer", "setting": "[3]; day 2 PI", "result": "10^1 PFU/ml"}, {"measurement": "Cell associated HCMV titer", "setting": "[3]; day 3 PI", "result": "10^1 PFU/ml"}, {"measurement": "Cell free (supernatant) HCMV titer", "setting": "[3]; day 3 PI", "result": "10^2 PFU/ml"}, {"measurement": "Cell associated HCMV titer", "setting": "[3]; day 4 PI", "result": "10^1 PFU/ml"}, {"measurement": "Cell free (supernatant) HCMV titer", "setting": "[3]; day 4 PI", "result": "10^1 PFU/ml"}, {"measurement": "Cell associated HCMV titer", "setting": "[3]; day 5 PI", "result": 0, "unit": "PFU/ml"}, {"measurement": "Cell free (supernatant) HCMV titer", "setting": "[3]; day 5 PI", "result": "10^1 PFU/ml"}, {"measurement": "Cell associated HCMV titer", "setting": "[3]; day 6 PI", "result": "10^1 PFU/ml"}, {"measurement": "Cell associated HCMV titer", "setting": "[3]; day 7 PI", "result": "10^1 PFU/ml"}, {"measurement": "log reduction at 10 µg/mL", "setting": "[4]; Human betaherpesvirus 5, AD169, Hs68, read-out: viral yield reduction", "result": "2 to 3"}, {"measurement": "reduction of HCMV titer", "setting": "[4]; PALA 3 μg/ml, DHPG 19 μg/ml", "result": "effective in reducing HCMV titers"}, {"measurement": "Cell associated HCMV titer", "setting": "[4]; day 0 PI", "result": "10^2 PFU/ml"}, {"measurement": "Cell free (supernatant) HCMV titer", "setting": "[4]; day 0 PI", "result": "10^5 PFU/ml"}, {"measurement": "Cell associated HCMV titer", "setting": "[4]; day 1 PI", "result": "10^3 PFU/ml"}, {"measurement": "Cell free (supernatant) HCMV titer", "setting": "[4]; day 1 PI", "result": "10^1 PFU/ml"}, {"measurement": "Cell associated HCMV titer", "setting": "[4]; day 2 PI", "result": "10^1 PFU/ml"}, {"measurement": "Cell free (supernatant) HCMV titer", "setting": "[4]; day 2 PI", "result": "10^1 PFU/ml"}, {"measurement": "Cell associated HCMV titer", "setting": "[4]; day 3 PI", "result": "10^1 PFU/ml"}, {"measurement": "Cell free (supernatant) HCMV titer", "setting": "[4]; day 3 PI", "result": "10^3 PFU/ml"}, {"measurement": "Cell associated HCMV titer", "setting": "[4]; day 4 PI", "result": "10^1 PFU/ml"}, {"measurement": "Cell free (supernatant) HCMV titer", "setting": "[4]; day 4 PI", "result": "10^2 PFU/ml"}, {"measurement": "Cell associated HCMV titer", "setting": "[4]; day 5 PI", "result": "10^1 PFU/ml"}, {"measurement": "Cell free (supernatant) HCMV titer", "setting": "[4]; day 5 PI", "result": "10^1 PFU/ml"}, {"measurement": "Cell associated HCMV titer", "setting": "[4]; day 6 PI", "result": "10^1 PFU/ml"}, {"measurement": "Cell associated HCMV titer", "setting": "[4]; day 7 PI", "result": 0, "unit": "PFU/ml"}]}]}
